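The compound was tested at five concentrations on cells cultured in 96-well plates, with a 48-hour exposure period. The concentration for 50% growth inhibition is given as GI50. TGI: concentration producing complete growth inhibition.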 Where a SMILES comes first, the peptide text is derived from it. The star is where a group is joined. Cbz = O=C(OCc1ccccc1)*; CH2Cl = ClC*
These molecules were tested on MDA-MB-231 breast (assay: NCI-60 cell line screen, 48 h).

Row | SMILES | GI50 | TGI
1 | CN(C)CC[PH+](c1ccccc1)c1ccccc1.CN(C)CC[PH+](c1ccccc1)c1ccccc1.[Cl-].[Pd+2] | > 100 µM | > 100 µM
2 | O=C(O)Cc1cc(Cl)ccc1O | – | > 100 µM
3 | O=C(c1ccccc1)c1cc2ccccc2o1 | 91.9 µM | > 100 µM
4 | C=C(C)[C@@H]1CC[C@]2(C)[C@H](CC=C3[C@@H]4CC(C)(C)CC[C@]4(C(N)=O)CC[C@]32C)[C@@]1(C)CCC#N | 3.96 µM | > 100 µM
5 | COc1c(OC[C@H](O)CN2CCOCC2)ccc2c3n(c(=NC(=O)c4cccnc4C)nc12)CCN3 | > 50 µM | > 50 µM
6 | COc1ccc(-c2nc3ccc(-c4nc5ccc(N6CCN(c7ccccc7)CC6)cc5[nH]4)cc3[nH]2)cc1OC | 2.48 µM | 5.05 µM
7 | O=C(N[C@@H](c1ccc(Cl)c(Cl)c1)C1CNC1)c1ccc2cnccc2c1 | 0.639 µM | 15 µM
8 | CO/N=C(\COc1ccc2c(c1)oc(=O)c1cc(OC)ccc12)c1ccc(OC)cc1 | > 100 µM | > 100 µM
9 | Nc1nc(/C=C\c2ccc([N+](=O)[O-])s2)nc(N2CCCC2)n1 | 1.56 µM | 9.35 µM
10 | Clc1ccc2[nH]cc(-c3nnnn3-c3ccccc3)c2c1 | 33.8 µM | > 100 µM
11 | CC(=O)OC12C=CC(=O)N1c1ccccc1C(=O)O2 (configuration not stated) | > 100 µM | > 100 µM
12 | CCCC(=O)Nc1cc2c3c(c1)CCCN3CCC2 | – | > 10 µM
13 | COc1cc(-c2cc(-c3cc4c([nH]c5ccccc54)c(-c4cc(OC)c(OC)c(OC)c4)n3)cc(-c3ccccc3)n2)cc(OC)c1OC | 3.59 µM | > 100 µM
14 | CC(C)Oc1ccc2cc(-c3nn(CC4CCNCC4)c4ncnc(N)c34)ccc2c1 | 3.05 µM | 9.94 µM
15 | CS(=O)(=O)CCNCc1nc(-c2ccc3ncnc(Nc4ccc(OCc5cccc(C(F)(F)F)c5)cc4)c3c2)cs1 | 12.6 µM | > 25 µM
16 | CC(C)CC(NC(=O)OCc1ccccc1)C(=O)NC(Cc1ccccc1)C(=O)CCl (stereo not drawn) (Cbz-Leu-Phe-CH2Cl; configuration not given here) | – | 3.3 µM
17 | CCOC(=O)C(Cc1ccc(CCCC(=O)NCCC(=O)Nc2ccc3nc(C)sc3c2)cc1)C(=O)OCC | 52.5 µM | > 100 µM
18 | NCCNc1c2c(c(NCCN)c3[nH]ccc13)C(=O)c1ccccc1C2=O | 0.109 µM | 0.605 µM
19 | Cc1c2c(C#N)nccc2c(C)c2c1c1ccccc1n2Cc1ccccc1 | – | > 100 µM
20 | COc1ccc2c(c1)C(=O)c1c-2c(N2CCN(C(=O)CNCCNCCO)CC2)nc2ccccc12 | 3.23 µM | 12.7 µM

What follows are molecules tested on HS 578T breast (assay: NCI-60 cell line screen, 48 h).

Row | SMILES | GI50 | TGI
21 | CN(C)CC[PH+](c1ccccc1)c1ccccc1.CN(C)CC[PH+](c1ccccc1)c1ccccc1.[Cl-].[Pd+2] | > 100 µM | > 100 µM
22 | O=C(O)Cc1cc(Cl)ccc1O | – | > 100 µM
23 | O=C(c1ccccc1)c1cc2ccccc2o1 | 37.5 µM | > 100 µM
24 | C=C(C)[C@@H]1CC[C@]2(C)[C@H](CC=C3[C@@H]4CC(C)(C)CC[C@]4(C(N)=O)CC[C@]32C)[C@@]1(C)CCC#N | 3.28 µM | 54.6 µM
25 | COc1c(OC[C@H](O)CN2CCOCC2)ccc2c3n(c(=NC(=O)c4cccnc4C)nc12)CCN3 | 0.15 µM | > 50 µM
26 | COc1ccc(-c2nc3ccc(-c4nc5ccc(N6CCN(c7ccccc7)CC6)cc5[nH]4)cc3[nH]2)cc1OC | 2.25 µM | 4.93 µM
27 | O=C(N[C@@H](c1ccc(Cl)c(Cl)c1)C1CNC1)c1ccc2cnccc2c1 | 0.0256 µM | 0.483 µM
28 | CO/N=C(\COc1ccc2c(c1)oc(=O)c1cc(OC)ccc12)c1ccc(OC)cc1 | > 100 µM | > 100 µM
29 | Nc1nc(/C=C\c2ccc([N+](=O)[O-])s2)nc(N2CCCC2)n1 | 12.9 µM | 59.7 µM
30 | Clc1ccc2[nH]cc(-c3nnnn3-c3ccccc3)c2c1 | 15.4 µM | > 60.8 µM
31 | CC(=O)OC12C=CC(=O)N1c1ccccc1C(=O)O2 (configuration not stated) | > 100 µM | > 100 µM
32 | CCCC(=O)Nc1cc2c3c(c1)CCCN3CCC2 | – | > 10 µM
33 | COc1cc(-c2cc(-c3cc4c([nH]c5ccccc54)c(-c4cc(OC)c(OC)c(OC)c4)n3)cc(-c3ccccc3)n2)cc(OC)c1OC | 6.09 µM | > 100 µM
34 | CC(C)Oc1ccc2cc(-c3nn(CC4CCNCC4)c4ncnc(N)c34)ccc2c1 | 9.4 µM | 32.2 µM
35 | CS(=O)(=O)CCNCc1nc(-c2ccc3ncnc(Nc4ccc(OCc5cccc(C(F)(F)F)c5)cc4)c3c2)cs1 | 9.11 µM | > 25 µM
36 | CC(C)CC(NC(=O)OCc1ccccc1)C(=O)NC(Cc1ccccc1)C(=O)CCl (stereo not drawn) (Cbz-Leu-Phe-CH2Cl; configuration not given here) | – | 25.7 µM
37 | CCOC(=O)C(Cc1ccc(CCCC(=O)NCCC(=O)Nc2ccc3nc(C)sc3c2)cc1)C(=O)OCC | 68.3 µM | > 100 µM
38 | NCCNc1c2c(c(NCCN)c3[nH]ccc13)C(=O)c1ccccc1C2=O | 0.012 µM | 0.219 µM
39 | Cc1c2c(C#N)nccc2c(C)c2c1c1ccccc1n2Cc1ccccc1 | – | > 100 µM
40 | COc1ccc2c(c1)C(=O)c1c-2c(N2CCN(C(=O)CNCCNCCO)CC2)nc2ccccc12 | 5.92 µM | 25.7 µM

Each molecule was assayed on OVCAR-8 ovarian (assay: NCI-60 cell line screen, 48 h).

Row | SMILES | GI50 | TGI
41 | CN(C)CC[PH+](c1ccccc1)c1ccccc1.CN(C)CC[PH+](c1ccccc1)c1ccccc1.[Cl-].[Pd+2] | > 100 µM | > 100 µM
42 | O=C(O)Cc1cc(Cl)ccc1O | – | > 100 µM
43 | O=C(c1ccccc1)c1cc2ccccc2o1 | > 100 µM | > 100 µM
44 | C=C(C)[C@@H]1CC[C@]2(C)[C@H](CC=C3[C@@H]4CC(C)(C)CC[C@]4(C(N)=O)CC[C@]32C)[C@@]1(C)CCC#N | 5.24 µM | > 100 µM
45 | COc1c(OC[C@H](O)CN2CCOCC2)ccc2c3n(c(=NC(=O)c4cccnc4C)nc12)CCN3 | > 50 µM | > 50 µM
46 | COc1ccc(-c2nc3ccc(-c4nc5ccc(N6CCN(c7ccccc7)CC6)cc5[nH]4)cc3[nH]2)cc1OC | 1.52 µM | 4.56 µM
47 | O=C(N[C@@H](c1ccc(Cl)c(Cl)c1)C1CNC1)c1ccc2cnccc2c1 | 1.45 µM | 5.07 µM
48 | CO/N=C(\COc1ccc2c(c1)oc(=O)c1cc(OC)ccc12)c1ccc(OC)cc1 | > 100 µM | > 100 µM

From PubChem BioAssay (NCI)
